Laboratory results from article PMC12114947, “Evaluation of Violacein Metabolic Stability and Metabolite Identification in Human, Mouse, and Rat Liver Microsomes” (Pharmaceutics, 2025).
pIC50: −log10 of the molar value. Values after ≈ are worked out from the molar mass of the structure shown.

Legend:
Candida albicans = test system: Candida albicans; parameters: method as in PMID 26428920; details: cited from earlier work
parasitemia = test system: parasitemia; parameters: method as in PMID 19273690; details: C57BL/6 mice, three consecutive days, 3.75 mg/kg/day; cited from earlier work
HT29 cells = test system: HT29 cells; parameters: method as in PMID 16889929; details: cited from earlier work
Candida tropicalis = test system: Candida tropicalis; parameters: method as in PMID 26428920; details: cited from earlier work
Cryptococcus gastricus = test system: Cryptococcus gastricus; parameters: method as in PMID 26428920; details: cited from earlier work
[1] = test system: experimental autoimmune encephalomyelitis (EAE); parameters: method as in PMID 25938431; details: EAE mice, three days of treatment, intraperitoneal 3.5 mg/kg; reduced from 4; cited from earlier work
[2] = test system: P. falciparum W2 strain (chloroquine-resistant); parameters: method as in PMID 29642881, PMID 33689276; details: cited from earlier work
[3] = Identification of violacein metabolites in RLMs by LC-QTOF; assay type: in vitro ADME, rat; details: all samples after 120 min of reaction, 105 µM violacein, 5 mg/mL protein
Procedure: (§1) The metabolism of violacein was investigated using HLMs and RLMs, by incubating the samples for 120 min under four conditions (n = 1): zero sample, phase I-only incubation, phase I and II incubation, and phase II-only incubation, as described by Godoi et al..
(§2) For all samples, 25 µL of the 843 µM violacein stock solution was added to propylene tubes and evaporated to dryness under a nitrogen stream. The dried residue was then reconstituted with 2 µL of methanol, ensuring that the final organic solvent concentration remained below 1% to minimize any potential impact on microsomal activity, as described by Jia et al..
(§3) To assess phase I metabolism, 148 μL of an NADPH-regenerating system containing 1.1 mM NADP+, 10 mM glucose-6-phosphate, 1 U/mL glucose-6-phosphate dehydrogenase, 5 mM sodium citrate, and 66 mM magnesium chloride in 100 mM phosphate buffer (pH 7.4) were added to the tubes. The solutions were pre-incubated for 5 min at 37 °C and 300 rpm in an MTC 100 thermo shaker incubator, and metabolic reactions were initiated by adding 50 μL of HLMs or RLMs (20 mg/mL), to yield final concentrations of 105 µM violacein and 5 mg of microsomal protein/mL. […]
(§4) The acquired chromatograms and mass spectra were analyzed using Insight Explore software version 1.0.0.0 (Shimadzu, Kyoto, Japan). […]

Caco-2 cells = test system: Caco-2 cells; parameters: method as in PMID 16889929; details: cited from earlier work
[4] = buffer, 720 h, pH 5; cited from earlier work
[5] = test system: P. falciparum 3D7 strain (chloroquine-sensitive); parameters: method as in PMID 29642881, PMID 33689276; details: P. falciparum 3D7 (chloroquine-sensitive); cited from earlier work
[6] = Identification of violacein metabolites in HLMs by LC-QTOF; assay type: in vitro ADME, human; details: all samples after 120 min of reaction, 105 µM violacein, 5 mg/mL protein
Procedure: as §1, §2, §3, §4

O=C1NC(c2c[nH]c3ccc(O)cc23)=C/C1=C1\C(=O)Nc2ccccc21 [violacein]
MIC (Candida albicans): 8 µg/mL (≈ 23.3 µM)
Reduction in parasitemia (parasitemia): 82%
pIC50 (HT29 cells): < 5.00
MIC (Candida tropicalis): 16 µg/mL (≈ 46.6 µM)
MIC (Cryptococcus gastricus): 32 µg/mL (≈ 93.2 µM)
Maximum clinical score [1]: 2
pIC50 [2]: 6.30
Violacein metabolized [3]: Approximately 50%
pIC50 (Caco-2 cells): ~5.70
Residual pigment remaining unaltered [4]: more than 80%
pIC50 [5]: ~6.40
Violacein metabolized [6]: 30%
